Laboratory results as given in US8058309B2, “Protein kinase modulators and therapeutic uses thereof” (Novotyr Therapeutics Ltd., priority 2006, dated 2011).
Like-named read-outs stand apart in the source and are kept apart here.

Assays:
LIM 1899 = test: Proliferation assay LIM 1899; format: cell-based; settings: Colon, 72 hours
Procedure: (§1) Various cancer cell lines (listed in table 1) were plated at a density of 1000-5000 cells/well in 96-well plates in 90111 growth medium containing 10% FCS, 100 units/ml penicillin and 100 μg/ml streptomycin. Inhibitors were added a day later in 10 μl of 1% DMSO in DDW to obtain final concentrations of 0, 0.1, 0.3, 1, 3, and 10 μM. The final concentration of DMSO (0.1% DMSO) was kept constant in all samples. Medium with inhibitors was refreshed a day and two days later. Following exposure of the cells to the inhibitors for 72 hours at 37° C., the cells were fixed in 0.5% gluteraldehyde in medium for 10 min, washed three times with DDW, once with 0.1M sodium borate buffer pH 8.5 and stained with 1% methylene blue dissolved in 0.1M borate buffer solution for 60 min. Excess dye was washed out and cell-bound dye was eluted with 200 μl/well of 0.1 M HCl. The optical density value was read at 620 nm in ELISA plate reader. The data was analyzed in Microsoft Excel, using the vehicle control as 100% proliferation. The assays were performed in triplicates. The values in table 1 represent IC50 values derived from the dose-dependent growth curves obtained.
(§2) Compounds 6, 7, 8, and 9 were tested for their inhibitory potential in cell proliferation assay. In this assay cells were exposed to increasing concentrations of the molecules (at 0.1% DMSO in all wells) a day after seeding. Medium and inhibitors were refreshed every day, and following three days of treatment, cells were fixed and stained with methylene-Blue. IC50 values were determined from the curves of the optical density against compound concentration. The assay was performed in triplicates.

B16 = test: Clonogenic assay B16; format: cell-based; settings: Mus musculus, Melanoma
Procedure: (§3) Various cancer cells (listed in table 1) were seeded at a very low concentration (19 cells/well in 96-well plates or 63 cells/well in 24-well plates) in growth medium. A day later medium was replaced with growth medium containing various concentrations of inhibitors in a final concentration of 0.1% DMSO. The inhibitor-containing medium was refreshed three times a week. Following approximately two weeks cells were fixed by adding Gluteraldehide (0.5% final concentration) for 10 min, washed three time with DDW, once with borate buffer 0.1M and stained for 1 hour with 1% Methylene Blue in borate buffer 0.1M. Access stain was washed with water, and following drying colonies were counted. Alternatively, stain was extracted by 0.1N HCl for 1 hour and absorbance at 620 nm was measured by ELISA Reader. The assays were performed in triplicates. The values in table 1 represent IC50 values derived from the dose-dependent growth curves obtained.

MDA MB 435 = test: Proliferation assay MDA MB 435; format: cell-based; settings: Homo sapiens, Breast, 72 hours
Procedure: as §1, §2

IGF1R = target: T1, IGF1R (Homo sapiens, UniProt P08069); test: IGF1R cellular free kinase assay (pGT substrate phosphorylation); format: biochemical; settings: for Competition with ATP (kinetic studies): elevation of ATP concentration
T1 construct: made in house
T1 sequence (P08069 31-1367, species assumed): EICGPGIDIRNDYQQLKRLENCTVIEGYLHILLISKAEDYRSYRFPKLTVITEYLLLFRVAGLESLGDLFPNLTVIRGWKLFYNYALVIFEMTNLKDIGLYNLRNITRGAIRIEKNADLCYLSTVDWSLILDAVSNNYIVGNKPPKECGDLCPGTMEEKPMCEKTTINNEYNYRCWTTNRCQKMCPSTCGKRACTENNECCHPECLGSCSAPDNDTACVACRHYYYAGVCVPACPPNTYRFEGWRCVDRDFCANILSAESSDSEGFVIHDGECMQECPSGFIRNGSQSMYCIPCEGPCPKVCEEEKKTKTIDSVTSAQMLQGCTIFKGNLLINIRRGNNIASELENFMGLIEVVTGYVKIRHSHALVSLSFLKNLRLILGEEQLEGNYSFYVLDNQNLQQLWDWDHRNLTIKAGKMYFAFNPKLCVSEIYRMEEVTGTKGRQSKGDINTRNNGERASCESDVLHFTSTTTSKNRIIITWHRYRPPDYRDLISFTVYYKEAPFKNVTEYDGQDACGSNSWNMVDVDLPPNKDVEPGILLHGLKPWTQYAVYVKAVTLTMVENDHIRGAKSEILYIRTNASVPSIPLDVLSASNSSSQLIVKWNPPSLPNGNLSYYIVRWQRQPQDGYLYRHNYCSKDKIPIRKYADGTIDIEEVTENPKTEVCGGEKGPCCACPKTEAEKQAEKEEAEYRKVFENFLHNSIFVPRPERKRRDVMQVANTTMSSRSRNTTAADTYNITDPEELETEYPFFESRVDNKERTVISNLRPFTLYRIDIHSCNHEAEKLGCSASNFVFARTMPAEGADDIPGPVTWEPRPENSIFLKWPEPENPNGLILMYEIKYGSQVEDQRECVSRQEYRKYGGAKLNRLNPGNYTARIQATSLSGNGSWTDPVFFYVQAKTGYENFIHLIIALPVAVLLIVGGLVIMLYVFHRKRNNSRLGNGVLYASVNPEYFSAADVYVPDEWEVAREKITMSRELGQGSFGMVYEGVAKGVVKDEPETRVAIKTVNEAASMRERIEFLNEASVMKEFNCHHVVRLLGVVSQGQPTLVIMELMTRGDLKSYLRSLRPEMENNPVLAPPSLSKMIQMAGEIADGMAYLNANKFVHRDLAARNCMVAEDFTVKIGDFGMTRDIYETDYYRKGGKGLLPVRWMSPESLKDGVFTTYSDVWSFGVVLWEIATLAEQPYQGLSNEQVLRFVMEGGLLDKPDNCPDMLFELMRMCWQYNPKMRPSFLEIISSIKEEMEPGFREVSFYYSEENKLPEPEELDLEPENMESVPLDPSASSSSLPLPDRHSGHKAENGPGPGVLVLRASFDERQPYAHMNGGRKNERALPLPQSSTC
Procedure: The general protein-tyrosine kinase substrate, poly(Glu,Tyr) 4:1 (pGT), was coated onto a 96-well Maxisorp plates (Nunc) by adding 125 μl of 0.1 mg/ml pGT in PBS to each well. Plates were sealed and incubated for 16 hours at 37° C., washed once with TBST (10 mM Tris-HCl, pH 7.5, 50 mM NaCl, and 0.1% Triton X-100) and once with DDW, dried for 2-3 hours, and stored at 4° C. […] The plate was then washed with TBS with 0.2% Tween 20 (TBST) and blocked with 0.5% BSA in TBST. Mouse monoclonal anti-phosphotyrosine antibody, conjugated to Horse radish peroxidase (PT-66, 1:50000) was added to the plate. Following incubation for 45 min at room temperature, the plate was washed repeatedly with TBST. Detection was carried out with a color reagent, 2,2′-azido-bis-3-ethylbenzithiazoline-6-sulfonic acid, in citrate-phosphate buffer, pH 4.0, with 0.004% H2O2 for 10 min and monitored at 405 nm, all at room temperature. IC50 values of inhibitors were calculated using the REGRESSION program. The assay was optimized with respect to the amount of IGF-1R (partially purified from cells overexpressing IGF1R), reaction time, and ATP concentration. The signal was linear for 30 min in the range of IGF1R protein concentrations up to 35 ng/well.

T24P = test: Proliferation assay T24P; format: cell-based; settings: Bladder, 72 hours
Procedure: as §1, §2

QG56 = test: Clonogenic assay QG56; format: cell-based; settings: Homo sapiens, QG-56, Lung
Procedure: as §3

SKOV-3 = test: Proliferation assay SKOV-3; format: cell-based; settings: Homo sapiens, SK-OV-3, Ovarian, 72 hours
Procedure: as §1, §2

NCl-H1975 = test: Proliferation assay NCl-H1975; format: cell-based; settings: Lung, 72 hours
Procedure: as §1, §2

MDA MB 231 = test: Proliferation assay MDA MB 231; format: cell-based; settings: Homo sapiens, Breast, 72 hours
Procedure: as §1, §2

A2780 = test: Clonogenic assay A2780; format: cell-based; settings: Homo sapiens, Ovarian
Procedure: as §3

MCF-7 = test: Proliferation assay MCF-7; format: cell-based; settings: Homo sapiens, MCF7, Breast, 72 hours
Procedure: as §1, §2

AsPC1 = test: Proliferation assay AsPC1; format: cell-based; settings: Homo sapiens, Pancreatic, 72 hours
Procedure: as §1, §2

LNCaP = test: Proliferation assay LNCaP; format: cell-based; settings: Homo sapiens, Prostate, 72 hours
Procedure: as §1, §2

OVCAR3 = test: Proliferation assay OVCAR3; format: cell-based; settings: Homo sapiens, OVCAR-3, Ovarian, 72 hours
Procedure: as §1, §2

PC3 [1] = test: Clonogenic assay PC3; format: cell-based; settings: Homo sapiens, PC-3, Prostate
Procedure: as §3

PC3-MM2 = test: Proliferation assay PC3-MM2; format: cell-based; settings: Homo sapiens, PC3MM2, Prostate, 72 hours
Procedure: as §1, §2

HT29 = test: Proliferation assay HT29; format: cell-based; settings: Homo sapiens, HT-29, Colon, 72 hours
Procedure: as §1, §2

K562 = test: Proliferation assay K562; format: cell-based; settings: Homo sapiens, Leukemia, 72 hours
Procedure: as §1, §2

T47D = test: Proliferation assay T47D; format: cell-based; settings: Homo sapiens, Breast, 72 hours
Procedure: as §1, §2

YURIF = test: Proliferation assay YURIF; format: cell-based; settings: Homo sapiens
Procedure: as §1, §2

PC3 [2] = test: Proliferation assay PC3; format: cell-based, human; settings: Prostate
Procedure: as §1, §2

[3] = [ATP] 2.5 μM, read-out: IC50, competition with ATP in cellular free kinase assay of IGF1R
[4] = [ATP] 5 μM, read-out: IC50, competition with ATP in cellular free kinase assay of IGF1R
[5] = [ATP] 10 μM, read-out: IC50, competition with ATP in cellular free kinase assay of IGF1R
[6] = [ATP] 20 μM, read-out: IC50, competition with ATP in cellular free kinase assay of IGF1R
[7] = [ATP] 50 μM, read-out: IC50, competition with ATP in cellular free kinase assay of IGF1R
[8] = partially purified IGF1R, 20 μM ATP, read-out: IC50 values of IGF1R activity in cellular free kinase assay
[9] = Melanoma, YURIF, 72 hours, read-out: Proliferation assay IC50
[10] = Table 4, 72 hours incubation, read-out: Inhibition of human metastatic melanoma cells, YURIF IC50

SMILES	IC50 (LIM 1899) [µM]	IC50 (MDA MB 435) [µM]	IC50 (IGF1R; [8]) [µM]	IC50 (T24P) [µM]	IC50 (QG56) [µM]	IC50 (SKOV-3) [µM]	IC50 (NCl-H1975) [µM]	IC50 (MDA MB 231) [µM]	IC50 (A2780) [µM]	IC50 (MCF-7) [µM]	IC50 (AsPC1) [µM]	IC50 (LNCaP) [µM]	IC50 (OVCAR3) [µM]	IC50 (PC3 [1]) [µM]	IC50 (PC3-MM2) [µM]	IC50 (HT29) [µM]	IC50 (K562) [µM]	IC50 (T47D) [µM]	IC50 (YURIF; [9]) [µM]	IC50 (YURIF; [10]) [µM]	other results
N#C/C(=C\c1cc(O)c(O)c(Br)c1)C(=S)NCc1cc(O)c(O)c(Br)c1 [Compound 6]	> 10	> 10	0.098	> 10	2.4	> 10	> 10	> 10	0.1	2.1	> 10	> 10	> 10	0.7	> 10	> 10	> 10	> 10	> 10	> 10	IC50 (B16): 0.8 µM; IC50 (IGF1R; [3]): 0.074 µM; IC50 (IGF1R; [4]): 0.056 µM; IC50 (IGF1R; [5]): 0.092 µM; IC50 (IGF1R; [6]): 0.055 µM; IC50 (IGF1R; [7]): 0.098 µM; Competition with ATP (kinetic studies) (IGF1R): do not compete with ATP; IC50 (PC3 [2]; Homo sapiens, PC-3, 72 h): > 10 µM
N#C/C(=C\c1cc(O)c(O)c(Br)c1)C(=S)NCc1cc(O)c(O)c(O)c1 [Compound 7]	7.6	2.7	0.116	1.2	1.7	5.3	2.5	6.3	0.4	4.8	> 10	> 10	2	4.2	2.6	6.8	~10	2.1	1.4	1.4	IC50 (B16): 0.4 µM; IC50 (IGF1R; [3]): 0.19 µM; IC50 (IGF1R; [4]): 0.163 µM; IC50 (IGF1R; [5]): 0.124 µM; IC50 (IGF1R; [6]): 0.09 µM; IC50 (IGF1R; [7]): 0.08 µM; Competition with ATP (kinetic studies) (IGF1R): do not compete with ATP; IC50 (PC3 [2]; Homo sapiens, PC-3, 72 h): 2.8 µM; IC50 (PC3 [2]; 72 hours): 3.9 µM
N#C/C(=C\c1cc(O)c(O)c(I)c1)C(=S)NCc1cc(O)c(O)c(O)c1 [Compound 8]	7.1	2.1	0.076	0.9	1.4	3.5	2.3	7.4	0.4	2.8	9.5	7.7	1.9	1	2.1	6.1	~10	2.5	1.6	1.6	IC50 (B16): 0.4 µM; IC50 (IGF1R; [3]): 0.19 µM; IC50 (IGF1R; [4]): 0.11 µM; IC50 (IGF1R; [5]): 0.1 µM; IC50 (IGF1R; [6]): 0.08 µM; IC50 (IGF1R; [7]): 0.1 µM; Competition with ATP (kinetic studies) (IGF1R): do not compete with ATP; IC50 (PC3 [2]; Homo sapiens, PC-3, 72 h): 4.6 µM; IC50 (PC3 [2]; 72 hours): 3.6 µM
Oc1cc(CNC(=S)/C=C/c2cc(O)c(O)c(Br)c2)cc(O)c1O [Compound 9]	2	1.5	0.078	1.4	0.5	4.3	2.7	> 10	0.3	2.5	> 10	4.7	0.9	1.2	6.9	1.5	> 10	1.6	0.7	0.65	IC50 (PC3 [2]; Homo sapiens, PC-3, 72 h): 2.7 µM; IC50 (PC3 [2]; 72 hours): 2 µM
